The source of these data is DBAASP.

Structures are written as SMILES. ≈ marks a conversion by molar mass, not a printed value. Where “and” joins values, the source holds several entries; their conditions need not be identical. Equal entries are not always repeated.

Among the test systems are Escherichia coli; Bacillus subtilis; Pseudomonas aeruginosa; Staphylococcus aureus.
Common to all, as to experiment: ≥ marks a high value that may be exact or a test limit, other limits are often not marked, values filed in µg/mL are converted to µM
Assay [1] deals with Staphylococcus aureus ATCC 29213.
Assay [2] deals with Escherichia coli ATCC 25922.
Assay [3] relates to Pseudomonas aeruginosa ATCC 27853.
Assay [4] relates to Candida albicans ATCC 90028.
Assay [5] concerns Pseudomonas aeruginosa PAO1.
Assay [6] deals with Enterococcus faecalis ATCC 29212.
For assay [7], the system named is Salmonella enterica subsp. enterica serovar Typhimurium ATCC 14028.

As usually defined, the MIC is the least concentration at which growth counts as inhibited. Read a low MIC as greater potency. With `CC[C@H](C)[C@H](NC(=O)[C@H](CCCN=C(N)N)NC(=O)[C@H](C)NC(=O)[C@@H](NC(=O)[C@@H](NC(=O)[C@H](CCCN=C(N)N)NC(=O)[C@@H](N)CCCCN)[C@@H](C)CC)C(C)C)C(=O)N[C@@H](CCCCN)C(=O)N[C@@H](CC(=O)O)C(=O)N[C@@H](Cc1ccccc1)C(=O)N[C@@H](CC(C)C)C(=O)N[C@@H](CCCN=C(N)N)C(=O)O` [KRIVARIKDFLR], the MIC amounted to 20 µM (≈ 30.3 µg/mL) in [1], 5 µM (≈ 7.57 µg/mL) in assay [2], 5 µM (≈ 7.57 µg/mL) in assay [3] and 20 µM (≈ 30.3 µg/mL) in [4].
As to `CC(C)C[C@H](NC(=O)[C@H](CCCN=C(N)N)NC(=O)[C@@H](N)CCCN=C(N)N)C(=O)N[C@@H](CCCN=C(N)N)C(=O)N1CCC[C@H]1C(=O)N[C@@H](CCCN=C(N)N)C(=O)N[C@@H](CCCN=C(N)N)C(=O)N1CCC[C@H]1C(=O)N[C@@H](CCCN=C(N)N)C(=O)N[C@@H](CC(C)C)C(=O)N1CCC[C@H]1C(=O)N[C@@H](CCCN=C(N)N)C(=O)N1CCC[C@H]1C(=O)N[C@@H](CCCN=C(N)N)C(=O)N1CCC[C@H]1C(=O)N[C@@H](CCCN=C(N)N)C(=O)O` [RRLRPRRPRLPRPRPR], the MIC was over 32 µM in [1]; 16 µM and 32 µM in [5]; over 32 µM in [6].
For `CSCC[C@H](NC(=O)[C@H](CCSC)NC(=O)[C@H](CCCCN)NC(=O)[C@H](CCCCN)NC(=O)CNC(=O)[C@H](CC(C)C)NC(=O)[C@H](CCCCN)NC(=O)[C@H](CC(C)C)NC(=O)[C@H](Cc1c[nH]c2ccccc12)NC(=O)[C@H](CC(N)=O)NC(=O)[C@@H](N)CO)C(=O)N[C@@H](CO)C(=O)N[C@@H](C)C(=O)N[C@@H](CC(C)C)C(N)=O` [SNWLKLGKKMMSAL], the MIC in the assay with Escherichia coli was 100 µM (≈ 161 µg/mL); against Bacillus subtilis it was at least 40 µM.
Take `CC[C@H](C)[C@H](N)C(=O)N[C@@H](CC(=O)O)C(=O)N[C@@H](Cc1c[nH]c2ccccc12)C(=O)N[C@@H](CCCCN)C(=O)N[C@@H](CCCCN)C(=O)N[C@H](C(=O)N[C@@H](Cc1ccccc1)C(=O)N[C@@H](CCC(=O)O)C(=O)N[C@@H](CCCCN)C(=O)N[C@H](C(=O)N[C@@H](CCCCN)C(=O)N[C@@H](CC(N)=O)C(=O)N[C@@H](CC(C)C)C(=O)N[C@H](C(N)=O)C(C)C)C(C)C)[C@@H](C)CC` [IDWKKIFEKVKNLV]: the MIC against Escherichia coli is 13 µM (≈ 22.9 µg/mL); in the assay with Bacillus subtilis, 8.5 µM (≈ 15 µg/mL).
As for `CSCC[C@H](NC(=O)[C@H](CCCN=C(N)N)NC(=O)[C@H](Cc1c[nH]c2ccccc12)NC(=O)[C@H](CCC(N)=O)NC(=O)[C@H](Cc1c[nH]c2ccccc12)NC(=O)[C@H](CC(C)C)NC(=O)[C@H](CC(C)C)NC(=O)[C@H](C)NC(=O)[C@H](CCCCN)NC(=O)[C@@H](N)Cc1ccccc1)C(=O)O` [FKALLWQWRM], the MIC in assay [2] and in [6] was 145 µM (≈ 200 µg/mL) throughout.
For `CC(C)C[C@H](NC(=O)[C@H](C)NC(=O)[C@@H](N)CCCCN)C(=O)N[C@@H](C)C(=O)N[C@@H](C)C(=O)N[C@@H](CC(C)C)C(=O)N[C@@H](CC(C)C)C(=O)N[C@@H](CCCCN)C(=O)N[C@@H](CCCCN)C(=O)N[C@@H](Cc1c[nH]c2ccccc12)C(=O)N[C@@H](C)C(=O)N[C@@H](CCCCN)C(=O)N[C@@H](CC(C)C)C(=O)N[C@@H](CC(C)C)C(=O)N[C@@H](C)C(=O)N[C@@H](C)C(=O)N[C@@H](CC(C)C)C(=O)N[C@@H](CCCCN)C(N)=O` [KALAALLKKWAKLLAALK], the MIC against Pseudomonas aeruginosa worked out at 5.8 µM (≈ 11.3 µg/mL); with Escherichia coli it was 4.1 µM (≈ 8 µg/mL); in the assay on Staphylococcus aureus, 3 µM (≈ 5.85 µg/mL).
`CC[C@H](C)[C@H](NC(=O)[C@H](CCCN=C(N)N)NC(=O)[C@H](C)NC(=O)[C@H](CC(N)=O)NC(=O)[C@H](CCCCN)NC(=O)[C@@H](N)CC(C)C)C(=O)N[C@H](C(=O)NCC(=O)N[C@@H](CCC(=O)O)C(=O)N[C@@H](CC(C)C)C(=O)N[C@H](C(=O)NCC(=O)N[C@@H](Cc1ccccc1)C(=O)N[C@@H](CCCN=C(N)N)C(=O)N1CCC[C@H]1C(=O)N[C@H](C(=O)N[C@@H](CCCN=C(N)N)C(=O)N1CCC[C@H]1C(=O)N[C@@H](CCC(N)=O)C(=O)N[C@H](C(=O)N[C@@H](CCCN=C(N)N)C(=O)N[C@@H](CC(C)C)C(=O)N[C@@H](CCC(=O)O)C(=O)O)C(C)C)C(C)C)[C@@H](C)O)C(C)C` [LKNARIVGELTGFRPVRPQVRLE]: the MIC in [7] is 25 µM (≈ 66.2 µg/mL); in assay [2], 12.5 µM (≈ 33.1 µg/mL); in assay [6], 12.5 µM (≈ 33.1 µg/mL).
In the case of `CC[C@H](C)[C@H](N)C(=O)N[C@@H](CC(N)=O)C(=O)N[C@@H](Cc1c[nH]c2ccccc12)C(=O)N[C@@H](CCCCN)C(=O)N[C@@H](CCCCN)C(=O)N[C@H](C(=O)N[C@@H](C)C(=O)N[C@@H](CO)C(=O)N[C@H](C(=O)NCC(=O)N[C@@H](CCCCN)C(=O)N[C@@H](CCC(=O)O)C(=O)N[C@H](C(=O)N[C@@H](CC(C)C)C(=O)N[C@@H](CCCCN)C(=O)N[C@@H](C)C(=O)N[C@H](C(N)=O)[C@@H](C)CC)C(C)C)[C@@H](C)CC)[C@@H](C)CC` [INWKKIASIGKEVLKAI], the MIC against Escherichia coli worked out at 5.5 µM (≈ 10.5 µg/mL); with Bacillus subtilis it was 27.2 µM (≈ 52 µg/mL).
Compound `CC[C@H](C)[C@H](NC(=O)[C@H](Cc1ccccc1)NC(=O)[C@H](CO)NC(=O)[C@H](CCCCN)NC(=O)[C@H](Cc1c[nH]c2ccccc12)NC(=O)[C@@H](N)CCCCN)C(=O)N[C@@H](CCCCN)C(=O)N[C@@H](CCCCN)C(=O)N[C@@H](CC(C)C)C(=O)N[C@@H](CC(C)C)C(=O)N[C@@H](CO)C(=O)N[C@@H](CCCCN)C(=O)N[C@@H](Cc1ccccc1)C(=O)N[C@@H](CC(C)C)C(=O)N[C@@H](Cc1cnc[nH]1)C(=O)N[C@@H](CO)C(=O)N[C@@H](C)C(=O)N[C@@H](CCCCN)C(=O)N[C@@H](CCCCN)C(=O)N[C@@H](Cc1ccccc1)C(N)=O` [KWKSFIKKLLSKFLHSAKKF] came in with an MIC against Pseudomonas aeruginosa of 5.07 µM (≈ 12.5 µg/mL).
As to `CSCC[C@H](NC(=O)[C@H](CCCN=C(N)N)NC(=O)[C@H](Cc1c[nH]c2ccccc12)NC(=O)[C@H](CCC(N)=O)NC(=O)[C@H](Cc1c[nH]c2ccccc12)NC(=O)[C@H](CC(C)C)NC(=O)[C@H](CCCN=C(N)N)NC(=O)[C@H](C)NC(=O)[C@H](CCCCN)NC(=O)[C@@H](N)Cc1ccccc1)C(=O)O` [FKARLWQWRM], the MIC in assay [2] came to 70.4 µM (≈ 100 µg/mL); in assay [6], 141 µM (≈ 200 µg/mL).
As for `CC(C)C[C@H](NC(=O)[C@H](C)NC(=O)[C@H](CCCCN)NC(=O)[C@H](CC(C)C)NC(=O)[C@H](CC(C)C)NC(=O)[C@H](Cc1c[nH]c2ccccc12)NC(=O)[C@H](CCCCN)NC(=O)[C@H](CC(C)C)NC(=O)[C@H](C)NC(=O)[C@H](C)NC(=O)[C@H](CCCCN)NC(=O)[C@H](C)NC(=O)[C@H](CC(C)C)NC(=O)[C@H](CC(C)C)NC(=O)[C@@H](N)CCCCN)C(=O)N[C@@H](CCCCN)C(=O)N[C@@H](C)C(=O)N[C@@H](C)C(N)=O` [KLLAKAALKWLLKALKAA], the MIC is 12.4 µM (≈ 24.2 µg/mL) in the assay with Pseudomonas aeruginosa, 6.2 µM (≈ 12.1 µg/mL) with Escherichia coli and 1.6 µM (≈ 3.12 µg/mL) against Staphylococcus aureus.
In the case of `CC[C@H](C)[C@H](NC(=O)[C@H](Cc1ccccc1)NC(=O)[C@H](CO)NC(=O)[C@H](CCCCN)NC(=O)[C@H](Cc1c[nH]c2ccccc12)NC(=O)[C@@H](N)CCCCN)C(=O)N[C@@H](CCCCN)C(=O)N[C@@H](CCCCN)C(=O)N[C@@H](CC(C)C)C(=O)N[C@H](C(=O)N[C@@H](CO)C(=O)N[C@@H](CCCCN)C(=O)N[C@@H](Cc1ccccc1)C(=O)N[C@@H](CC(C)C)C(=O)N[C@@H](Cc1cnc[nH]1)C(=O)N[C@@H](CC(C)C)C(=O)N[C@@H](C)C(=O)N[C@@H](CCCCN)C(=O)N[C@@H](CCCCN)C(=O)N[C@@H](Cc1ccccc1)C(N)=O)[C@@H](C)O` [KWKSFIKKLTSKFLHLAKKF], in the assay on Pseudomonas aeruginosa, the MIC was 5.04 µM (≈ 12.5 µg/mL).
